Target: T1, human orexin type 2 receptor (hOX2R) (Homo sapiens, UniProt O43614)
T1 construct: expressed in transfected cells
T1 sequence (O43614 1-444): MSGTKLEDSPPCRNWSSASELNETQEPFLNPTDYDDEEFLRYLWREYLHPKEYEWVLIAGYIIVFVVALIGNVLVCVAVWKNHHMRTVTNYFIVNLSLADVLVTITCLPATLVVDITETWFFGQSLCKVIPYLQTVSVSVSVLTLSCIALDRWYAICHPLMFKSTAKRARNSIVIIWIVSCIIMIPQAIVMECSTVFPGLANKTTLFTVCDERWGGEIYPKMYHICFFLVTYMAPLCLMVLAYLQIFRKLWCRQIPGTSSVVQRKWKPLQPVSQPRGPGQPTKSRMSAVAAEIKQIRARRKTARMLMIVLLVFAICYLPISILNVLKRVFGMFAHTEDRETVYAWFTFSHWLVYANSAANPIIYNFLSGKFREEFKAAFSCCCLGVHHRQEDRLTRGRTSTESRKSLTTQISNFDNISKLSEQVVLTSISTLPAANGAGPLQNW
Assay: Measurement of orexin type 2 receptor agonist activity (Fluo-4 calcium fluorescence, CHO cells forcibly expressing human OX2 receptor)
Assay type: cell-based
Settings: test compound 3 μM, DMSO = 0%, orexin A (human) 10 nM = 100%
Excerpt: Experimental Example 1: Obtainment of Cell Stably Expressing Human Orexin Type 2 Receptor (hOX2R)
To obtain a cell clone stably expressing human orexin type 2 receptor, human orexin type 2 receptor cDNA was inserted into pcDNA3.1(+) plasmid vector (Invitrogen), and a plasmid DNA for expression of human orexin type 2 receptor (pcDNA3.1(+)/hOX2R) was cloned. The plasmid DNA was introduced into CHO-dhfr cell by an electroporation method, and human orexin type 2 receptor expressing clone cells were obtained by limiting dilution method by using G418 drug resistance as a selection marker.
Experimental Example 2: Measurement of Orexin Type 2 Receptor Agonist Activity
CHO cells forcibly expressing human OX2 receptor were seeded in each well of 384 well black transparent bottom plate (BD Falcon) at 7,500 cells/well, and cultured for one day in a 5% CO2 incubator at 37° C. After removal of the medium in the cell plate, assay buffer A containing a calcium indicator (HBSS (Life Technologies), 20 mM HEPES (Life Technologies), 0.1% BSA (Wako Pure Chemical Industries, Ltd.), 2.5 μg/mL Fluo-4 AM (DOJINDO Chemical), 0.08% Pluronic F127 (DOJINDO Chemical), 1.25 mM probenecid (DOJINDO Chemical)) was added at 30 μL/well. The plate was stood for 30 min in a 5% CO2 incubator at 37° C., and further stood at room temperature for 30 min. A test compound prepared by diluting with assay buffer B (HBSS, 20 mM HEPES, 0.1% BSA) was added at 10 μL/well, and the fluorescence value was measured by FDSSpCELL (Hamamatsu Photonics K.K.) every one sec for 1 min, and thereafter every two sec for 1 min 40 sec. The activity (%) of the test compound was calculated assuming that variation in the fluorescence value when DMSO was added instead of the test compound was 0% […], and variation in the fluorescence value when orexin A (human) (PEPTIDE INSTITUTE, INC.) was added at the final concentration of 10 nM was 100% […]. The activity of each compound at the concentration of 3 μM was shown below.

Row | OX2R agonist activity (3 μM, %) | Structure (SMILES)
1 | 55% | CO[C@@H]1CN(C(=O)c2cc(C)ccc2C)C[C@H]1Oc1cccc(CS(=O)(=O)N2CCC[C@H]2c2ccccn2)c1 [Example 57, (2,5-dimethylphenyl)((3R,4R)-3-methoxy-4-(3-((((2S)-2-(pyridin-2-yl)pyrrolidin-1-yl)sulfonyl)methyl)phenoxy)pyrrolidin-1-yl)methanone]
2 | 97% | CO[C@@H]1CN(C(=O)c2c(C)cccc2C2CC2)C[C@H]1Oc1cccc(OS(=O)(=O)N(C)C2CCOCC2)c1 (relative stereo) [Example 163, trans-3-((1-(2-cyclopropyl-6-methylbenzoyl)-4-methoxypyrrolidin-3-yl)oxy)phenyl methyl(tetrahydro-2H-pyran-4-yl)sulfamate]
3 | 32% | CO[C@@H]1CN(C(=O)c2cc(C)ccc2C)C[C@H]1Oc1cccc(CS(=O)(=O)N(C)c2ccncc2)c1 (relative stereo) [Example 7, trans-1-(3-((1-(2,5-dimethylbenzoyl)-4-methoxypyrrolidin-3-yl)oxy)phenyl)-N-methyl-N-(pyridin-4-yl)methanesulfonamide]
4 | 77% | CO[C@@H]1CN(C(=O)c2cc(C)ccc2C)C[C@H]1Oc1cccc(CS(=O)(=O)N2CCCC2c2ccc(C)nc2)c1 (relative stereo) [Example 112, trans-(2,5-dimethylphenyl)(3-methoxy-4-(3-(((2-(6-methylpyridin-3-yl)pyrrolidin-1-yl)sulfonyl)methyl)phenoxy)pyrrolidin-1-yl)methanone]
5 | 87% | CO[C@@H]1CN(C(=O)c2cc(C)ccc2C)C[C@H]1Oc1cccc(NS(=O)(=O)N2CCOCC2)c1 (relative stereo) [Example 4, trans-N-(3-((1-(2,5-dimethylbenzoyl)-4-methoxypyrrolidin-3-yl)oxy)phenyl)morpholine-4-sulfonamide]
6 | 89% | CO[C@@H]1CN(C(=O)c2cc(C)ccc2C)C[C@H]1Oc1cccc(CS(=O)(=O)N2CCCC2Cc2cccnc2)c1 (relative stereo) [Example 36, trans-(2,5-dimethylphenyl)(3-methoxy-4-(3-(((2-(pyridin-3-ylmethyl)pyrrolidin-1-yl)sulfonyl)methyl)phenoxy)pyrrolidin-1-yl)methanone]
7 | 96% | CCc1ccccc1C(=O)N1C[C@@H](OC)[C@H](Oc2cccc(NS(=O)(=O)N3CC4CC4C3)c2)C1 (stereo partly drawn) [Example 129, N-(3-(((3R,4R)-1-(2-ethylbenzoyl)-4-methoxypyrrolidin-3-yl)oxy)phenyl)-3-azabicyclo[3.1.0]hexane-3-sulfonamide]
8 | 38% | CO[C@@H]1CN(C(=O)Oc2ccccc2C)C[C@H]1Oc1cccc(NS(=O)(=O)N2CC3CC3C2)c1 (stereo partly drawn) [Example 138, 2-methylphenyl(3R,4R)-3-(3-((3-azabicyclo[3.1.0]hex-3-ylsulfonyl)amino)phenoxy)-4-methoxypyrrolidine-1-carboxylate]
9 | 100% | CO[C@@H]1CN(C(=O)c2cc(C)ccc2C)C[C@H]1Oc1cccc(CS(=O)(=O)N2CCCC2c2cccnc2C)c1 (relative stereo) [Example 114, trans-(2,5-dimethylphenyl)(3-methoxy-4-(3-(((2-(2-methylpyridin-3-yl)pyrrolidin-1-yl)sulfonyl)methyl)phenoxy)pyrrolidin-1-yl)methanone]
10 | 74% | CO[C@@H]1CN(C(=O)c2cc(C)ccc2C)C[C@H]1Oc1cccc(NS(=O)(=O)N(C)CC2CCOC2)c1 (relative stereo) [Example 62, trans-N′-(3-((1-(2,5-dimethylbenzoyl)-4-methoxypyrrolidin-3-yl)oxy)phenyl)-N-methyl-N-(tetrahydrofuran-3-ylmethyl)sulfuric diamide]
11 | 85% | CO[C@@H]1CN(C(=O)c2cc(C)ccc2C)C[C@H]1Oc1cccc(NS(=O)(=O)N2CCOC(C)C2)c1 (relative stereo) [Example 54, trans-N-(3-((1-(2,5-dimethylbenzoyl)-4-methoxypyrrolidin-3-yl)oxy)phenyl)-2-methylmorpholine-4-sulfonamide]
12 | 90% | COc1cccc(C)c1C(=O)N1C[C@@H](OC)[C@H](Oc2cccc(NS(=O)(=O)N(C)C)c2)C1 [Example 135, N′-(3-(((3R,4R)-4-methoxy-1-(2-methoxy-6-methylbenzoyl)pyrrolidin-3-yl)oxy)phenyl)-N,N-dimethylsulfuric diamide]
13 | 82% | CO[C@@H]1CN(C(=O)c2cc(C)ccc2C)C[C@H]1Oc1cccc(NS(=O)(=O)N(C)C2COC2)c1 (relative stereo) [Example 45, trans-N′-(3-((1-(2,5-dimethylbenzoyl)-4-methoxypyrrolidin-3-yl)oxy)phenyl)-N-methyl-N-oxetan-3-ylsulfuric diamide]
14 | 32% | CO[C@@H]1CN(C(=O)c2cc(C)ccc2C)C[C@H]1Oc1cccc(CS(=O)(=O)N2CCCC2)c1 (relative stereo) [Example 5, trans-(2,5-dimethylphenyl)(3-methoxy-4-(3-((pyrrolidin-1-ylsulfonyl)methyl)phenoxy)pyrrolidin-1-yl)methanone]
15 | 87% | CO[C@@H]1CN(C(=O)c2cc(C)ccc2C)C[C@H]1Oc1cccc(CS(=O)(=O)N2CCC23COC3)c1 (relative stereo) [Example 34, trans-(2,5-dimethylphenyl)(3-methoxy-4-(3-((6-oxa-1-azaspiro[3.3]hept-1-ylsulfonyl)methyl)phenoxy)pyrrolidin-1-yl)methanone]
16 | 70% | CO[C@@H]1CN(C(=O)c2cc(C)ccc2C)C[C@H]1Oc1cccc(CS(=O)(=O)N2CCC23CCOCC3)c1 (relative stereo) [Example 21, trans-(2,5-dimethylphenyl)(3-methoxy-4-(3-((7-oxa-1-azaspiro[3.5]non-1-ylsulfonyl)methyl)phenoxy)pyrrolidin-1-yl)methanone]
17 | 92% | CO[C@@H]1CN(C(=O)c2cc(C)ccc2C)C[C@H]1Oc1cccc(CS(=O)(=O)N(C)C2CCOC(C)(C)C2)c1 (relative stereo) [Example 156, trans-1-(3-((1-(2,5-dimethylbenzoyl)-4-methoxypyrrolidin-3-yl)oxy)phenyl)-N-(2,2-dimethyltetrahydro-2H-pyran-4-yl)-N-methylmethanesulfonamide]
18 | 74% | COC1CN(C(=O)c2cc(C)ccc2C)CC1Oc1cccc(NS(=O)(=O)N2CC[C@@H]3C[C@H]32)c1 (relative stereo) [Example 72, trans-N-(3-((1-(2,5-dimethylbenzoyl)-4-methoxypyrrolidin-3-yl)oxy)phenyl)-2-azabicyclo[3.1.0]hexane-2-sulfonamide]
19 | 105% | CO[C@@H]1CN(C(=O)c2cc(C)ccc2C)C[C@H]1Oc1cccc(CS(=O)(=O)N2CCC23CCN(C(=O)OC(C)(C)C)C3)c1 (relative stereo) [Example 33, tert-butyl trans-1-((3-((1-(2,5-dimethylbenzoyl)-4-methoxypyrrolidin-3-yl)oxy)benzyl)sulfonyl)-1,6-diazaspiro[3.4]octane-6-carboxylate]
20 | 79% | CO[C@@H]1CN(C(=O)c2cc(C)ccc2C)C[C@H]1Oc1cccc(CS(=O)(=O)N2CCCC2c2nccs2)c1 (relative stereo) [Example 40, trans-(2,5-dimethylphenyl)(3-methoxy-4-(3-(((2-(1,3-thiazol-2-yl)pyrrolidin-1-yl)sulfonyl)methyl)phenoxy)pyrrolidin-1-yl)methanone]
21 | 86% | CO[C@@H]1CN(C(=O)c2cc(C)ccc2C)C[C@H]1Oc1cccc(CS(=O)(=O)N2CCCC2c2ccccc2Cl)c1 (relative stereo) [Example 37, trans-(3-(3-(((2-(2-chlorophenyl)pyrrolidin-1-yl)sulfonyl)methyl)phenoxy)-4-methoxypyrrolidin-1-yl)(2,5-dimethylphenyl)methanone]
